Results reported in ChEMBL document CHEMBL5046293 (J Med Chem, 2022).

How the values were obtained:
[1] = Stability of compound in 0.01 M PBS buffer at 50 uM measured after 4 hrs by LC-MS analysis (reference value: 99.2 %); type: physicochemical; conditions: read-out: Stability
[2] = Stability of compound in 0.01 M PBS buffer at 50 uM measured after 52 hrs by LC-MS analysis (reference value: 99.2 %); type: physicochemical; conditions: read-out: Stability
[3] = Cytotoxicity against human BLEC monolayers at 50 uM incubated for 1 hr; type: toxicity, cell-based; conditions: brain-like endothelial cells
[4] = Stability of compound in 0.01 M PBS buffer at 50 uM measured after 4 hrs by LC-MS analysis (reference value: 98.7 %); type: physicochemical; conditions: read-out: Stability
[5] = Stability of compound in 0.01 M PBS buffer at 50 uM measured after 52 hrs by LC-MS analysis (reference value: 98.7 %); type: physicochemical; conditions: read-out: Stability

OC[C@H]1O[C@@H](OCCCCc2cn(CCCc3ccc(O)c(/C=N/O)n3)nn2)[C@H](O)[C@@H](O)[C@@H]1O
remaining at 4 h, 50 µM [1]: 96.7% | remaining at 52 h, 50 µM [2]: 90.9% | Activity [3]: Non-Toxic

C#CCCCCO[C@@H]1O[C@H](CO)[C@@H](O)[C@H](O)[C@H]1O
Activity [3]: Non-Toxic

OC[C@H]1O[C@@H](OCCCCCc2ccc(O)c(/C=N/O)n2)[C@H](O)[C@@H]1O
Activity [3]: Non-Toxic

C#CCCCCO[C@@H]1O[C@H](CO)[C@@H](O)[C@H]1O
Activity [3]: Non-Toxic

OC[C@H]1O[C@H](OCCCCc2cn(CCCCc3ccc(O)c(/C=N/O)n3)nn2)[C@H](O)[C@@H](O)[C@@H]1O
Activity [3]: Non-Toxic

OC[C@H]1O[C@@H](OCCCCc2cn(CCCCc3ccc(O)c(/C=N/O)n3)nn2)[C@H](O)[C@@H]1O
Activity [3]: Non-Toxic

OC[C@H]1O[C@@H](OCCCCc2ccc(O)c(/C=N/O)n2)[C@H](O)[C@@H](O)[C@@H]1O
Activity [3]: Non-Toxic

Cn1cc(CCCCO[C@H]2O[C@H](CO)[C@@H](O)[C@H](O)[C@H]2O)nn1
Activity [3]: Non-Toxic

OC[C@H]1O[C@@H](OCCCc2ccc(O)c(/C=N/O)n2)[C@H](O)[C@@H](O)[C@@H]1O
remaining at 4 h, 50 µM [4]: 97.8% | remaining at 52 h, 50 µM [5]: 91.4% | Activity [3]: Non-Toxic

Cn1cc(CCCCOC[C@H]2O[C@@H](O)[C@H](O)[C@@H](O)[C@@H]2O)nn1
Activity [3]: Non-Toxic

Cn1cc(CCCCO[C@@H]2O[C@H](CO)[C@@H](O)[C@H](O)[C@H]2O)nn1
Activity [3]: Non-Toxic

C#CCCO[C@@H]1O[C@H](CO)[C@@H](O)[C@H](O)[C@H]1O
Activity [3]: Non-Toxic

OC[C@H]1O[C@@H](OCCCCc2cn(CCCCc3ccc(O)c(/C=N/O)n3)nn2)[C@H](O)[C@@H](O)[C@@H]1O
Activity [3]: Non-Toxic

Cn1cc(CCCCO[C@@H]2O[C@H](CO)[C@@H](O)[C@H]2O)nn1
Activity [3]: Non-Toxic

Cn1cc(CCO[C@@H]2O[C@H](CO)[C@@H](O)[C@H](O)[C@H]2O)nn1
Activity [3]: Non-Toxic

C#CCCCCO[C@H]1O[C@H](CO)[C@@H](O)[C@H]1O
Activity [3]: Non-Toxic
